Here are results for 2 compounds from patent US20180311334A1, “Compositions and Methods for Inducing an Immune Response” (Yale University, priority 2017, published 2018).

Series [1] relates to murine bone marrow-derived macrophages. The series is described as follows: qPCR of cytokine mRNA in bone marrow-derived macrophages (BMM). The conditions noted are these: 1 μM soluble xyliquimod, 12 hours, WT and TLR7KO BMM. It is filed as cell-based, C57BL/6 mice. How it is done:
Finally, before leaving the sortase-based xyliquimod incorporation approach behind altogether, it was tested it in a more physiologically relevant experimental system. To this end, stimulations in murine bone marrow-derived macrophages (BMM) were performed and the resulting immune responses were assessed by quantifying expression of IL-1β, a pro-inflammatory cytokine transcriptionally regulated by NFκB. Besides more accurately recapitulating the physiological response to an immune stimulus than the RAW-NFκB-sLuc assay, the primary macrophage model offered two additional advantages over reporter cell lines. First, the dynamic range of qPCR analysis is far greater than that of the luciferase assay, so smaller differences in immune activation can be detected more readily. […]
After stimulation of BMDCs and BMMs, the supernatant was removed, cells were lysed, and RNA was isolated using the RNeasy kit (Qiagen, Germantown, Md.) according to manufacturer's instructions. cDNA was reverse-transcribed with an oligo(dT) primer using Moloney murine leukemia virus reverse transcriptase (MMLV RT). cDNA was analyzed in triplicate by qPCR amplification using SYBR Green Supermix (Life Technologies, Carlsbad, Calif.) on a Bio-Rad CFX96 Real-Time PCR Detection System (Bio-Rad, Hercules, Calif.). […]

The next series relates to WT S. aureus Newman. The series is described as follows: S. aureus growth in presence of copper (optical density). It counts as cell-based, Staphylococcus aureus. The conditions noted are these: 2 mM copper, 4.25 hours, absorbance at 600 nm. How it is done:
WT S. aureus Newman was grown in the presence and absence of 2 mM copper for 4.25 hours. Growth was monitored by optical density: absorbance measurements were taken every 15 minutes at 600 nm.

In the case of `CCCCc1nc2c(N)nc3ccccc3c2n1Cc1ccc(CN)cc1` [xyliquimod, 1-(4-(aminomethyl)benzyl)-2-butyl-1Himidazo[4,5-c]quinolin-4-amine], in series [1], the “IL-1β mRNA expression” value is “active in WT and not TLR7KO macrophages”. Take copper: the S. aureus growth result in the series on WT S. aureus Newman is “completely inhibit S. aureus growth”.
